Source: PubChem BioAssay AID248 (DTP/NCI, 2004)
“And” between values parts separate entries of the source, which are not always exact repeats. Identical values can stand only once. Toxic doses and inconclusive results are not listed. Square brackets hold non-standard residues; d marks the D form. Peptide text beside a SMILES is read from it. * marks the point of attachment. ξ: configuration not given here. Boc = CC(C)(C)OC(=O)*; ξP = O=C(O)C1CCCN1

Tested on: L1210 leukemia ip in BDF1 mice, survival T/C
Assay: NCI In Vivo Anticancer Drug Screen. Data for tumor model L1210 Leukemia (intraperitoneal) in B6D2F1 (BDF1) mice
Settings: endpoint: mean survival time, higher = longer survival
Outline: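 Mice bearing the transplanted tumor received compound or vehicle. Survival of the treated group was divided by that of the vehicle-treated control group to give the ratio.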

[1] = dose: 100.0 mg/kg/injection, schedule: Q01DX009 (ip), vehicle: saline with Tween-80
[2] = dose: 200.0 mg/kg/injection, schedule: Q01DX009 (ip), vehicle: saline with Tween-80
[3] = dose: 50.0 mg/kg/injection, schedule: Q01DX009 (ip), vehicle: saline with Tween-80
[4] = dose: 50.0 mg/kg/injection, schedule: Q01DX009 (ip), vehicle: saline
[5] = dose: 100.0 mg/kg/injection, schedule: Q01DX009 (ip), vehicle: saline
[6] = dose: 100.0 mg/kg/injection, schedule: Q04DX003 (ip), vehicle: saline
[7] = dose: 200.0 mg/kg/injection, schedule: Q01DX009 (ip), vehicle: saline
[8] = dose: 200.0 mg/kg/injection, schedule: Q04DX003 (ip), vehicle: saline
[9] = dose: 100.0 mg/kg/injection, schedule: Q01DX009 (ip), vehicle: Klucel (hydroxypropylcellulose) (HPC)
[10] = dose: 100.0 mg/kg/injection, schedule: Q04DX003 (ip), vehicle: Klucel (hydroxypropylcellulose) (HPC)
[11] = dose: 200.0 mg/kg/injection, schedule: Q01DX009 (ip), vehicle: Klucel (hydroxypropylcellulose) (HPC)
[12] = dose: 200.0 mg/kg/injection, schedule: Q04DX003 (ip), vehicle: Klucel (hydroxypropylcellulose) (HPC)
[13] = dose: 400.0 mg/kg/injection, schedule: Q04DX003 (ip), vehicle: Klucel (hydroxypropylcellulose) (HPC)
[14] = dose: 100.0 mg/kg/injection, schedule: Q01DX001 (ip), vehicle: saline
[15] = dose: 200.0 mg/kg/injection, schedule: Q01DX001 (ip), vehicle: saline
[16] = dose: 400.0 mg/kg/injection, schedule: Q01DX001 (ip), vehicle: saline
[17] = dose: 100.0 mg/kg/injection, schedule: Q04DX003 (ip), vehicle: saline with Tween-80
[18] = dose: 200.0 mg/kg/injection, schedule: Q04DX003 (ip), vehicle: saline with Tween-80

COC(=O)CNC(=O)C1CCCN1C(=O)OC(C)(C)C (centres undefined) (Boc-[ξP]-Gly-OMe) was tested, and the T/C [1] was 100 % of control, the T/C [2] was 100 % of control and the T/C (dose: 400.0 mg/kg/injection, schedule: Q01DX009 (ip), vehicle: saline with Tween-80) was 90 % of control.

In the case of Cc1ccc(N=Nc2sc(N)nc2C)c(C)c1, the T/C (dose: 75.0 mg/kg/injection, schedule: Q01DX001 (ip), vehicle: saline) is reported as 97 % of control and the T/C (dose: 150.0 mg/kg/injection, schedule: Q01DX001 (ip), vehicle: saline) is reported as 103 % of control.

With CC[N+](C)(CC)Cc1cc(C(C)=O)c(C)o1 the T/C (dose: 12.5 mg/kg/injection, schedule: Q01DX009 (ip), vehicle: saline with Tween-80) was 90 % of control, the T/C (dose: 25.0 mg/kg/injection, schedule: Q01DX009 (ip), vehicle: saline with Tween-80) was 95 % of control and the T/C [3] was 93 % of control.

With CCOP(=O)(OCC)OCCCN(CC)CC the T/C [4] was 101 % of control, the T/C [5] was 96 % of control and 114 % of control and the T/C [6] was 101 % of control. The T/C [7] was 94 % of control and 105 % of control and the T/C [8] was 98 % of control.

With COc1cccc(CNc2ccc(C)cc2C)c1OC the T/C [9] was 100 % of control, the T/C [10] was 92 % of control and the T/C [11] was 107 % of control. The T/C [12] was 91 % of control, the T/C (dose: 400.0 mg/kg/injection, schedule: Q01DX009 (ip), vehicle: Klucel (hydroxypropylcellulose) (HPC)) was 109 % of control and the T/C [13] was 97 % of control.

With O=C(OC1OC(COCc2ccccc2)C(OCc2ccccc2)C1OCc1ccccc1)c1ccccc1 (centres undefined) the T/C (dose: 100.0 mg/kg/injection, schedule: Q01DX001 (ip), vehicle: Klucel (hydroxypropylcellulose) (HPC)) was 92 % of control and 98 % of control, the T/C (dose: 200.0 mg/kg/injection, schedule: Q01DX001 (ip), vehicle: Klucel (hydroxypropylcellulose) (HPC)) was 100 % of control and 98 % of control and the T/C (dose: 400.0 mg/kg/injection, schedule: Q01DX001 (ip), vehicle: Klucel (hydroxypropylcellulose) (HPC)) was 94 % of control and 113 % of control.

For O=C(O)CCSc1ccc2c(c1)CCCC2, the T/C (dose: 100.0 mg/kg/injection, schedule: Q04DX003 (ip), vehicle: acetone) was 99 % of control, the T/C (dose: 200.0 mg/kg/injection, schedule: Q04DX003 (ip), vehicle: acetone) was 100 % of control and the T/C (dose: 400.0 mg/kg/injection, schedule: Q04DX003 (ip), vehicle: acetone) was 96 % of control.

With COc1cccc(C2N(Cc3ccc(OC)cc3OC)CCCN2Cc2ccc(OC)cc2OC)c1 the T/C (dose: 50.0 mg/kg/injection, schedule: Q01DX001 (ip), vehicle: saline) was 89 % of control, the T/C [14] was 96 % of control and the T/C [15] was 91 % of control. The T/C [16] was 96 % of control.

CCNC(=O)OCCc1c2ccccc2[n+]([O-])c2ccccc12 was tested, and the T/C [17] was 96 % of control, the T/C [18] was 102 % of control and the T/C (dose: 400.0 mg/kg/injection, schedule: Q04DX003 (ip), vehicle: saline with Tween-80) was 90 % of control.

With NC(N)=N/N=C/CN1C(=O)c2ccccc2C1=O the T/C (dose: 60.0 mg/kg/injection, schedule: Q01DX Z (oral), vehicle: methylcellulose (MC)) was 104 % of control, the T/C (dose: 120.0 mg/kg/injection, schedule: Q01DX Z (oral), vehicle: methylcellulose (MC)) was 94 % of control and the T/C (dose: 240.0 mg/kg/injection, schedule: Q01DX Z (oral), vehicle: methylcellulose (MC)) was 109 % of control. For the same molecule, the T/C (dose: 480.0 mg/kg/injection, schedule: Q01DX Z (oral), vehicle: methylcellulose (MC)) was 98 % of control.

With Cc1cccc(C)c1NC(=O)Oc1ccc(F)cc1Cl the T/C [9] was 110 % of control and the T/C [11] was 97 % of control.

In the case of c1ccc(CCNc2ccnc3ccccc23)cc1, the T/C (dose: 12.5 mg/kg/injection, schedule: Q01DX009 (ip), vehicle: Klucel (hydroxypropylcellulose) (HPC)) is reported as 103 % of control, the T/C (dose: 12.5 mg/kg/injection, schedule: Q04DX003 (ip), vehicle: Klucel (hydroxypropylcellulose) (HPC)) is reported as 104 % of control and the T/C (dose: 25.0 mg/kg/injection, schedule: Q01DX009 (ip), vehicle: Klucel (hydroxypropylcellulose) (HPC)) is reported as 101 % of control. The T/C (dose: 25.0 mg/kg/injection, schedule: Q04DX003 (ip), vehicle: Klucel (hydroxypropylcellulose) (HPC)) was 97 % of control and the T/C (dose: 50.0 mg/kg/injection, schedule: Q04DX003 (ip), vehicle: Klucel (hydroxypropylcellulose) (HPC)) was 95 % of control.

CCC1CN2C(=N1)c1ccccc1-c1cc(Cl)ccc12 (centres undefined) was tested, and the T/C (dose: 6.25 mg/kg/injection, schedule: Q01DX009 (ip), vehicle: suspension in saline) was 102 % of control, the T/C (dose: 10.0 mg/kg/injection, schedule: Q01DX001 (ip), vehicle: Klucel (hydroxypropylcellulose) (HPC)) was 103 % of control and the T/C (dose: 10.0 mg/kg/injection, schedule: Q01DX009 (ip), vehicle: Klucel (hydroxypropylcellulose) (HPC)) was 90 % of control. The T/C (dose: 12.5 mg/kg/injection, schedule: Q01DX009 (ip), vehicle: suspension in saline) was 102 % of control, the T/C (dose: 20.0 mg/kg/injection, schedule: Q01DX001 (ip), vehicle: Klucel (hydroxypropylcellulose) (HPC)) was 114 % of control and the T/C (dose: 20.0 mg/kg/injection, schedule: Q01DX009 (ip), vehicle: Klucel (hydroxypropylcellulose) (HPC)) was 90 % of control. The T/C (dose: 20.0 mg/kg/injection, schedule: Q01DX009 (ip), vehicle: saline) was 111 % of control, the T/C (dose: 20.0 mg/kg/injection, schedule: Q04DX002 (ip), vehicle: saline) was 114 % of control and the T/C (dose: 20.0 mg/kg/injection, schedule: Q04DX003 (ip), vehicle: Klucel (hydroxypropylcellulose) (HPC)) was 88 % of control. For the same molecule, the T/C (dose: 25.0 mg/kg/injection, schedule: Q01DX009 (ip), vehicle: suspension in saline) was 110 % of control, the T/C (dose: 40.0 mg/kg/injection, schedule: Q01DX001 (ip), vehicle: Klucel (hydroxypropylcellulose) (HPC)) was 108 % of control and the T/C (dose: 40.0 mg/kg/injection, schedule: Q04DX002 (ip), vehicle: saline) was 118 % of control. For the same molecule, the T/C (dose: 40.0 mg/kg/injection, schedule: Q04DX003 (ip), vehicle: Klucel (hydroxypropylcellulose) (HPC)) was 88 % of control, the T/C (dose: 80.0 mg/kg/injection, schedule: Q01DX009 (ip), vehicle: saline) was 188 % of control and the T/C (dose: 80.0 mg/kg/injection, schedule: Q04DX002 (ip), vehicle: saline) was 122 % of control.

CCCCCCCC(C(=O)O)C(C)C (centres undefined) was tested, and the T/C (dose: 100.0 mg/kg/injection, schedule: Q01DX001 (ip), vehicle: saline with Tween-80) was 94 % of control, the T/C (dose: 200.0 mg/kg/injection, schedule: Q01DX001 (ip), vehicle: saline with Tween-80) was 106 % of control and the T/C (dose: 400.0 mg/kg/injection, schedule: Q01DX001 (ip), vehicle: saline with Tween-80) was 105 % of control.

For O=C(CC(O)(C(F)(F)Cl)C(F)(F)Cl)c1ccco1, the T/C [3] was 98 % of control, the T/C [1] was 98 % of control and the T/C [17] was 103 % of control. The T/C [2] was 95 % of control and the T/C [18] was 90 % of control.

O/N=C\CCC/C=N/O was tested, and the T/C [9] was 98 % of control, the T/C [10] was 100 % of control and the T/C [11] was 91 % of control. The T/C [12] was 94 % of control and the T/C [13] was 103 % of control.

In the case of CC(C)c1c[nH]c(=O)[nH]c1=O, the T/C (dose: 100.0 mg/kg/injection, schedule: Q01DX009 (ip), vehicle: other) is reported as 102 % of control, the T/C [6] is reported as 91 % of control and the T/C (dose: 200.0 mg/kg/injection, schedule: Q01DX009 (ip), vehicle: other) is reported as 96 % of control. For the same molecule, the T/C [8] was 93 % of control, the T/C (dose: 400.0 mg/kg/injection, schedule: Q01DX009 (ip), vehicle: other) was 102 % of control and the T/C (dose: 400.0 mg/kg/injection, schedule: Q04DX003 (ip), vehicle: saline) was 91 % of control.

With Cc1cccc(N2CCN(C(=S)c3ccccc3)CC2)c1 the T/C [14] was 93 % of control, the T/C [15] was 93 % of control and the T/C [16] was 98 % of control.

O=C(O)CC(NC(=O)c1ccccc1)C(=O)O (centres undefined) was tested, and the T/C [4] was 93 % of control, the T/C [5] was 89 % of control and the T/C [7] was 97 % of control.

For BrCC1OCC2(CO1)COC(CBr)OC2 (centres undefined), the T/C [10] was 96 % of control and the T/C [12] was 104 % of control.

With c1ccc(N(c2ccccc2)N(c2ccccc2)c2ccccc2)cc1 the T/C (dose: 12.5 mg/kg/injection, schedule: Q01DX009 (ip), vehicle: saline) was 90 % of control, the T/C (dose: 50.0 mg/kg/injection, schedule: Q04DX003 (ip), vehicle: saline) was 89 % of control and the T/C [14] was 88 % of control. For the same molecule, the T/C [15] was 88 % of control.
